According to the supplement of paper PMC10307832:

Key:
Experiment in all cases: relative viability (nuclei count vs DMSO), 5 days (fraction); higher = more cells survive
NCI-H2228 = details: first compound 4 µM
How it was run: (§1)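 A single step with final 0.05% Triton X-100, 1% formaldehyde and 1 ug/ml Hoechst fixed the cells and stained nuclei 5 days after treatment. Lung cancer cell lines in 1536-well plates had been treated by pin tool the day after seeding with one drug alone or a fixed anchor-drug dose plus five library-drug doses (not always all listed) in √10 steps, and nuclei were counted on 4× images. Relative viability is the ratio of nuclei in treated wells to nuclei in vehicle wells, taken as the median of duplicate plates.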

LOU-NH91 = test system: LOU-NH91
How it was run: as §1

NCI-H1437 = test system: NCI-H1437
How it was run: as §1

NCI-H1734 = test system: NCI-H1734
How it was run: as §1

NCI-H1792 = test system: NCI-H1792
How it was run: as §1

NCI-H1355 = test system: NCI-H1355
How it was run: as §1

NCI-H2009 = test system: NCI-H2009
How it was run: as §1

SK-MES-1 = test system: SK-MES-1
How it was run: as §1

EKVX = test system: EKVX
How it was run: as §1

HCC-44 = test system: HCC-44
How it was run: as §1

NCI-H1395 = test system: NCI-H1395
How it was run: as §1

NCI-H647 = test system: NCI-H647
How it was run: as §1

LC-2-ad = test system: LC-2-ad
How it was run: as §1

COc1cc(N2CCC(C(N)=O)CC2)ccc1Nc1nc(N)c(Cl)c(Nc2ccccc2S(=O)(=O)C(C)C)n1 [HG-5-88-01] + N=C(N)NC(=N)NCCc1ccccc1 [Phenformin] (partner 250 µM)
relative viability (NCI-H2228): 0.0828 | relative viability (LOU-NH91; first compound 0.04 µM): 0.701 | relative viability (LOU-NH91; first compound 0.1265 µM): 0.721 | relative viability (LOU-NH91; first compound 0.4 µM): 0.664 | relative viability (LOU-NH91; first compound 1.265 µM): 0.421 | relative viability (LOU-NH91; first compound 4 µM): 0.416 | relative viability (NCI-H1437; first compound 0.04 µM): 0.37 | relative viability (NCI-H1437; first compound 0.1265 µM): 0.335 | relative viability (NCI-H1437; first compound 0.4 µM): 0.466 | relative viability (NCI-H1437; first compound 1.265 µM): 0.37 | relative viability (NCI-H1437; first compound 4 µM): 0.194 | relative viability (NCI-H1734; first compound 0.04 µM): 0.345 | relative viability (NCI-H1734; first compound 0.1265 µM): 0.364 | relative viability (NCI-H1734; first compound 0.4 µM): 0.333 | relative viability (NCI-H1734; first compound 1.265 µM): 0.371 | relative viability (NCI-H1734; first compound 4 µM): 0.355 | relative viability (NCI-H1792; first compound 0.04 µM): 0.897 | relative viability (NCI-H1792; first compound 0.1265 µM): 0.647 | relative viability (NCI-H1792; first compound 0.4 µM): 0.548 | relative viability (NCI-H1792; first compound 1.265 µM): 0.525 | relative viability (NCI-H1792; first compound 4 µM): 0.291 | relative viability (NCI-H1355; first compound 0.04 µM): 0.487 | relative viability (NCI-H1355; first compound 0.1265 µM): 0.493 | relative viability (NCI-H1355; first compound 0.4 µM): 0.431 | relative viability (NCI-H1355; first compound 1.265 µM): 0.455 | relative viability (NCI-H1355; first compound 4 µM): 0.316 | relative viability (NCI-H2009; first compound 0.04 µM): 0.475 | relative viability (NCI-H2009; first compound 0.1265 µM): 0.527 | relative viability (NCI-H2009; first compound 0.4 µM): 0.534 | relative viability (NCI-H2009; first compound 1.265 µM): 0.484 | relative viability (NCI-H2009; first compound 4 µM): 0.366 | relative viability (SK-MES-1; first compound 0.04 µM): 0.665 | relative viability (SK-MES-1; first compound 0.1265 µM): 0.646 | relative viability (SK-MES-1; first compound 0.4 µM): 0.652 | relative viability (SK-MES-1; first compound 1.265 µM): 0.602 | relative viability (SK-MES-1; first compound 4 µM): 0.643 | relative viability (EKVX; first compound 0.04 µM): 0.276 | relative viability (EKVX; first compound 0.1265 µM): 0.262 | relative viability (EKVX; first compound 0.4 µM): 0.204 | relative viability (EKVX; first compound 4 µM): 0.226 | relative viability (HCC-44; first compound 0.04 µM): 0.303 | relative viability (HCC-44; first compound 0.1265 µM): 0.156 | relative viability (HCC-44; first compound 0.4 µM): 0.201 | relative viability (HCC-44; first compound 1.265 µM): 0.159 | relative viability (HCC-44; first compound 4 µM): 0.0886 | relative viability (NCI-H1395; first compound 0.04 µM): 0.423 | relative viability (NCI-H1395; first compound 0.1265 µM): 0.422 | relative viability (NCI-H1395; first compound 0.4 µM): 0.45 | relative viability (NCI-H1395; first compound 1.265 µM): 0.449 | relative viability (NCI-H1395; first compound 4 µM): 0.463 | relative viability (NCI-H647; first compound 0.04 µM): 0.663 | relative viability (NCI-H647; first compound 0.1265 µM): 0.595 | relative viability (NCI-H647; first compound 0.4 µM): 0.624 | relative viability (NCI-H647; first compound 1.265 µM): 0.608 | relative viability (NCI-H647; first compound 4 µM): 0.643 | relative viability (LC-2-ad; first compound 0.04 µM): 0.717 | relative viability (LC-2-ad; first compound 0.1265 µM): 0.69 | relative viability (LC-2-ad; first compound 0.4 µM): 0.598 | relative viability (LC-2-ad; first compound 1.265 µM): 0.472 | relative viability (LC-2-ad; first compound 4 µM): 0.415
